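Tested at 5 concentrations; 48 h exposure; 96-well plates; endpoints linearly interpolated, else capped at highest concentration. GI50: concentration for 50% inhibition of growth. At the TGI there is no net growth.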
Key:
Experiment in all cases: NCI tumour cell line growth inhibition, 48 h
A549 NSCLC = system: A549 NSCLC
SW-620 colon = system: SW-620 colon
SK-OV-3 ovarian = system: SK-OV-3 ovarian
U251 CNS = system: U251 CNS
KM12 colon = system: KM12 colon
OVCAR-8 ovarian = system: OVCAR-8 ovarian
TK-10 renal = system: TK-10 renal
NCI-H460 lung = system: NCI-H460 lung
RPMI-8226 leukemia = system: RPMI-8226 leukemia
COLO 205 colon = system: COLO 205 colon

SMILES	TGI (A549 NSCLC) [µM]	TGI (SW-620 colon) [µM]	TGI (SK-OV-3 ovarian) [µM]	TGI (U251 CNS) [µM]	TGI (KM12 colon) [µM]	TGI (OVCAR-8 ovarian) [µM]	TGI (TK-10 renal) [µM]	TGI (NCI-H460 lung) [µM]	TGI (RPMI-8226 leukemia) [µM]	TGI (COLO 205 colon) [µM]	GI50 (A549 NSCLC) [µM]	GI50 (SW-620 colon) [µM]	GI50 (U251 CNS) [µM]	GI50 (KM12 colon) [µM]	GI50 (NCI-H460 lung) [µM]	GI50 (RPMI-8226 leukemia) [µM]	GI50 (COLO 205 colon) [µM]	GI50 (SK-OV-3 ovarian) [µM]	GI50 (OVCAR-8 ovarian) [µM]	GI50 (TK-10 renal) [µM]
C=CCN=C1NC(=O)C(CC(=O)Nc2cccc(Cl)c2)S1 (stereo not drawn)	> 100	> 100	> 100	> 100	> 100	> 100	> 100	> 100	> 100	> 100	–	–	–	–	–	–	–	–	–	–
Cc1cccc2c(=O)c3c(sc12)c(NCCCN)nc1ccccc13	2.45	2.66	–	3.01	3.21	–	–	2.25	3.88	3.23	0.88	1.19	1.51	1.65	0.825	1.77	1.56	–	–	–
CCC(CO)Nc1nc(NCc2ccccc2)c2n[nH]c(C(C)C)c2n1 (stereo not drawn)	46.4	18	20.7	25.3	23.1	31.1	33.1	19.4	29	17.1	12	4.76	11.4	10.2	4.94	5.95	4.45	6.4	8.98	13.7
C=C(C)[C@@H]1C/C=C(/COC(C)=O)CC[C@H]2O[C@@]2(C)CC/C=C(\C)CC1	> 100	–	> 100	> 100	> 100	> 100	> 100	> 100	44	> 100	40.1	–	> 100	> 100	> 100	21.1	> 100	> 100	> 100	> 100
CC1CCCc2c1n[nH]c2CC1CC(=O)NC(=O)C1 (stereo not drawn)	> 100	> 100	> 100	> 100	> 100	> 100	> 100	> 100	> 100	> 100	–	–	–	–	–	–	–	–	–	–
CSc1ccc(Cc2cc(C(C)(C)C)cc(C(C)(C)C)c2O)cc1	27.3	29.7	42.4	28.6	23.4	30.7	25.7	27.2	20.8	–	–	–	–	–	–	–	–	–	–	–
C=CCC1(CN(C)C)CC/C(=C\c2cc(OC)c(OC)c(OC)c2)C1=O (stereo not drawn)	> 100	33.6	–	59.5	32.8	54.6	36.4	36.9	59.6	31.3	–	–	–	–	–	–	–	–	–	–
CC1=NC(C)=C(/C(C)=N/NC(=O)c2ccccc2O)C(C)/C1=C(/C)NNC(=O)c1ccccc1O (stereo not drawn)	96.5	> 100	> 100	> 100	> 100	50.5	98.8	66.6	–	–	–	–	–	–	–	–	–	–	–	–
C/C(COc1ccc2oc(-c3ccccc3)cc(=O)c2c1)=N\O	> 100	> 100	> 100	37.2	39.7	> 100	94.7	> 100	62.3	52.9	45.4	26.2	14.4	2.39	14.3	22.3	11.8	> 100	> 100	22.6

Source: PubChem BioAssay (NCI)
